This assay concerns the target high affinity nicotinic receptors. The following applies: read-out: Ki (nM), inhibition of L-[3H]nicotine binding; mouse brain membranes (cerebellum removed), 10 nM L-[3H]nicotine, 2 hr at 4° C.; Ki calculated from IC50 by the method of Cheng et al. The procedure:
Mice were killed by cervical dislocation. Brains were removed and placed on an ice-cold platform. […] Prior to each centrifugation step, the suspension was incubated at 37° C. for 5 min. to promote hydrolysis of endogenous acetylcholine. The final pellet was overlayered with buffer and stored at -70° C.
The binding of L-[^3 H]nicotine was measured using a 2 hr. incubation at 4° C. Incubations contained about 500 μg of protein and were conducted in 12 mm×75 mm polypropylene test tubes in a final incubation volume of 250 μl. The incubation buffer was Krebs-Ringers HEPES containing 200 mM TRIS buffer, pH 7.5. The binding reaction was terminated by filtration of the protein containing bound ligand onto glass fiber filters (Micro Filtration Systems) that had been soaked in buffer containing 0.5 percent polyethyleneimine. Filtration vacuum was -50 to -100 torr. Each filter was washed five times with 3 ml of ice-cold buffer. The filtration apparatus was cooled to 2° C. before use and was kept cold through the filtration process. […] The inhibition of L-[^3 H]nicotine binding by test compounds was determined by including one of eight different concentrations of the test compound in the incubation.

One may read the Ki as the dissociation constant of the complex between target and ligand, obtained from inhibition or displacement. `CN1CCC[C@@H]1c1cccnc1` [(R)-(+)-nicotine]: the Ki was 113 nM.

Source of the values: patent publication US5227391A, “Method for treatment of neurodegenerative diseases” (R. J. Reynolds Tobacco Company, priority 1992, dated 1993).
